Read-outs that look alike come from different tables or passages of the source.
Columns and labels:
[1] = target: T1, human norepinephrine transporter (Homo sapiens, UniProt P23975); assay: hNET receptor binding ([125I]-RTI-55 radioligand binding); conditions: membranes of HEK-293 cells transfected with human norepinephrine transporter, IC50 converted to Ki by Cheng-Prusoff
T1 construct: host or cells: HEK-293
Excerpt: (§1) The ability of the compounds of this invention to bind to the hNET and serotonin SERT receptor can be determined using conventional radiolig and receptor binding assays. The receptors can be heterologously expressed in cell lines and experiments conducted in membrane preparations from the cell lines using procedures outlined below. IC50 concentrations can be determined by nonlinear regression of concentration-dependent reduction in specific binding. The Cheng-Prussoff equation can be used to convert the IC50 to Ki concentrations.
Cell pastes of HEK-293 cells transfected with the human norepinephrine transporter were supplied by the Pfizer Ann Arbor Protein Expression and Production group. […] Aliquots of membranes (5 mg/ml protein) were stored in liquid nitrogen until used.
(§2) The reaction was incubated by gentle agitation for 90 min at room temperature and was terminated by filtration through Whatman GF/C filter plates using a Brandel 96-well plate harvester. […] Test compounds were run in duplicate, and specific binding was defined as the difference between binding in the presence and absence of 10 μM desipramine.
(§3) Excel and GraphPad Prism software were used for data calculation and analysis. IC50 values were converted to Ki values using the Cheng-Prusoff equation.

[2] = target: T2, human seritonin transporter (Homo sapiens, UniProt P31645); assay: hSERT receptor binding ([125I]-RTI-55 radioligand binding); conditions: membranes of HEK-293 cells transfected with human seritonin transporter, IC50 converted to Ki by Cheng-Prusoff, read-out: SERT (Ki)
T2 construct: host or cells: HEK-293
Excerpt: as §1
Cell pastes of HEK-293 cells transfected with the human seritonin transporter were supplied by the Pfizer Ann Arbor Protein Expression and Production group. […] Aliquots of membranes (5 mg/ml protein) were stored in liquid nitrogen until used.
as §2, with “[…] citalopram.” for “μM desipramine.”
as §3

T1 sequence (P23975 whole entry): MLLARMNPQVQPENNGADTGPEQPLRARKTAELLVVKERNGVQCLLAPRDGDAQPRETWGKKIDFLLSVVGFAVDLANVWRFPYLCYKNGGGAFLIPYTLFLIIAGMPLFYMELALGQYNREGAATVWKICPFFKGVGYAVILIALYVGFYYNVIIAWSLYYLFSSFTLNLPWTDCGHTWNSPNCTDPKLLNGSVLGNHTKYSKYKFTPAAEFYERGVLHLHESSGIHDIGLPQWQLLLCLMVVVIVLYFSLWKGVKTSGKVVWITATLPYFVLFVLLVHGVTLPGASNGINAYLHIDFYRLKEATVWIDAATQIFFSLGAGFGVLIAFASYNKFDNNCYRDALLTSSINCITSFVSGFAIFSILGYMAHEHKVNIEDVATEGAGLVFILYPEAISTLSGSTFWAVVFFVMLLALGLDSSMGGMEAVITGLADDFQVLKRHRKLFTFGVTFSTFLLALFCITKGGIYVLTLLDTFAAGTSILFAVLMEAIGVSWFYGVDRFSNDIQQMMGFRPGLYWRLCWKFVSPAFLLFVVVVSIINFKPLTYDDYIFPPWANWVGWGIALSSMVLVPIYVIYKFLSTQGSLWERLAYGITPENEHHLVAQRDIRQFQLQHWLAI
T2 sequence (P31645 whole entry): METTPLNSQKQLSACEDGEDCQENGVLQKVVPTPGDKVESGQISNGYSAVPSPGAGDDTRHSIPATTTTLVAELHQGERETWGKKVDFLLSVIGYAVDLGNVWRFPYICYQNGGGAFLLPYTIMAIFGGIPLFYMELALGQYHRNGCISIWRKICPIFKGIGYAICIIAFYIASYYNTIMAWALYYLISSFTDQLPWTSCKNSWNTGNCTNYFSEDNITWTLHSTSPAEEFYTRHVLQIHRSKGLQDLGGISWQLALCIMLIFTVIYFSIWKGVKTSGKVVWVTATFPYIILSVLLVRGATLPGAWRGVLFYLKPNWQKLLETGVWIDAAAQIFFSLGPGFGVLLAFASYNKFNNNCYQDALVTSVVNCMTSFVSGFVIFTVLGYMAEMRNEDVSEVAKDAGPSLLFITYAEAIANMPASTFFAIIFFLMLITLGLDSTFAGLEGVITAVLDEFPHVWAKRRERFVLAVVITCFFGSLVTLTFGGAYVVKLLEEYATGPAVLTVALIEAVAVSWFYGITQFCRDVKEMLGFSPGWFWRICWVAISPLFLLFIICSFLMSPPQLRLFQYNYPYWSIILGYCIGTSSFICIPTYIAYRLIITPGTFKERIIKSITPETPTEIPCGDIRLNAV

Row | Structure (SMILES) | Ki ([1]; read-out: hNET (Ki)) | Ki [2] | Ki ([1]; hNET (Ki))
1 | COCc1ccccc1O[C@@H](c1ccccc1)[C@@H]1CNCCO1 [Example 7, (S)-2-[(S)-(2-Methoxymethyl-phenoxy)-phenyl-methyl]-morpholine] | 17 nM | 6610 nM | –
2 | N#Cc1ccccc1O[C@@H](c1ccccn1)[C@@H]1CNCCO1 [Example 125, 2-[(S)-(2S)-morpholin-2-yl(pyridin-2-yl)methoxy]benzonitrile] | 11 nM | ≥ 10000 nM | –
3 | CCCC[C@H](Oc1cccnc1OCC)[C@@H]1CNCCO1 [Example 176, (2S)-2-{(1S)-1-[(2-ethoxypyridin-3-yl)oxy]pentyl}morpholine] | 5 nM | 3420 nM | –
4 | Fc1cc(F)c(O[C@@H](c2ccccc2)[C@@H]2CNCCO2)c(C2CC2)c1 [Example 122, (2S)-2-[(S)-(2-cyclopropyl-4,6-difluorophenoxy)(phenyl)methyl]morpholine] | 11 nM | 44 nM | –
5 | Fc1ccc(O[C@@H](c2ccccc2)[C@@H]2CNCCO2)cc1 [Example 69, (S)-2-[(S)-(4-Fluoro-phenoxy)-phenyl-methyl]-morpholine] | 26 nM | 1890 nM | –
6 | CCOc1ccccc1OC(c1nccs1)[C@@H]1CNCCO1 (stereo partly drawn) [Example 180, (2S)-2-[(2-ethoxyphenoxy)(1,3-thiazol-2-yl)methyl]morpholine] | 9 nM | 8230 nM | –
7 | Fc1ccc(Oc2ncccc2OC[C@@H]2CNCCO2)cc1F [Example 79, (S)-2-[2-(3,4-Difluoro-phenoxy)-pyridin-3-yloxymethyl]-morpholine] | 10 nM | 9650 nM | –
8 | Cc1ccc(C(C)C)c(O[C@@H](c2ccccn2)[C@@H]2CNCCO2)c1 [Example 130, (2S)-2-[(S)-(2-isopropyl-5-methylphenoxy)(pyridin-2-yl)methyl]morpholine] | 457 nM | 7060 nM | –
9 | FC(F)Oc1ccccc1O[C@@H](c1ccccc1)[C@@H]1CNCCO1 [Example 57, (S)-2-[(S)-(2-Difluoromethoxy-phenoxy)-phenyl-methyl]-morpholine] | 24 nM | 94 nM | –
10 | CCOc1ncccc1OC(CC(C)C)[C@@H]1CNCCO1 (stereo partly drawn) [Example 149, (2S)-2-{1-[(2-ethoxypyridin-3-yl)oxy]-3-methylbutyl}morpholine] | 9 nM | 2310 nM | –
11 | Cc1coc(C(Oc2c(F)cccc2F)[C@@H]2CNCCO2)n1 (mixture of isomers) [Example 134, (2S)-2-[(2,6-difluorophenoxy)(4-methyl-1,3-oxazol-2-yl)methyl]morpholine] | 18 nM | ≥ 10000 nM | –
12 | CCCc1ccccc1O[C@@H](c1ccccn1)[C@@H]1CNCCO1 [Example 127, (2S)-2-[(S)-(2-propylphenoxy)(pyridin-2-yl)methyl]morpholine] | 7 nM | 6280 nM | –
13 | CCOc1ccccc1O[C@H](c1cccnc1)[C@H]1CNCCO1 [Example 90, (2R)-2-[(R)-(2-Ethoxy-phenoxy)-pyridin-3-yl-methyl]-morpholine] | 211 nM | 5050 nM | –
14 | Fc1ccc(OC(c2ccccn2)[C@H]2CNCCO2)c(F)c1 (stereo partly drawn) [Example 87, (2R,3R)-2-[(2,4-Difluoro-phenoxy)-pyridin-2-yl-methyl]-morpholine] | 2890 nM | 953 nM | –
15 | c1ccc(COc2ccccc2O[C@@H](c2ccccc2)[C@@H]2CNCCO2)cc1 [Example 83, (S)-2-[(S)-(2-Benzyloxy-phenoxy)-phenyl-methyl]-morpholine] | 3.9 nM | 3120 nM | –
16 | Fc1ccc(Oc2nccnc2OCC2CNCCO2)cc1 (stereo in doubt) [Example 78, (S)-2-[3-(4-Fluoro-phenoxy)-pyrazin-2-yloxymethyl]-morpholine] | 7970 nM | ≥ 10000 nM | –
17 | OCc1ccccc1O[C@@H](c1ccccc1)[C@@H]1CNCCO1 [Example 85, (2S,3S)-[2-(Morpholin-2-yl-phenyl-methoxy)-phenyl]-methanol] | 37 nM | 869 nM | –
18 | COc1cccc(OC)c1OC(c1ccccc1)[C@@H]1CNCCO1 (stereo partly drawn) [Example 148, (2S)-2-[(2,6-dimethoxyphenoxy)(phenyl)methyl]morpholine] | 69 nM | ≥ 10000 nM | –
19 | COc1cccc([C@H](Oc2ccccc2OC(F)(F)F)[C@@H]2CNCCO2)n1 [Example 109, (2S)-2-{(S)-(6-methoxypyridin-2-yl)[2-(trifluoromethoxy)phenoxy]methyl}morpholine] | 16 nM | 364 nM | –

Row | Structure (SMILES) | Ki ([1]; read-out: hNET (Ki)) | Ki [2] | Ki ([1]; hNET (Ki))
20 | CCc1ccccc1O[C@@H](c1ccccc1)[C@@H]1CNCCO1 [Example 98, (2S)-2-[(S)-(2-ethylphenoxy)(phenyl)methyl]morpholine] | 22 nM | 1140 nM | –
21 | Fc1ccc(-c2ccccc2O[C@@H](c2ccccc2)[C@@H]2CNCCO2)cc1 [Example 81, (S)-2-[(S)-(4′-Fluoro-biphenyl-2-yloxy)-phenyl-methyl]-morpholine] | 9.6 nM | 4320 nM | –
22 | c1ccc([C@H](Oc2ccccc2C2CC2)[C@H]2CNCCO2)cc1 [Example 71, (R)-2-[(S)-(2-Cyclopropyl-phenoxy)-phenyl-methyl]-morpholine] | 50 nM | 65 nM | –
23 | CCOc1cccc(F)c1O[C@@H](c1ccccn1)[C@@H]1CNCCO1 [Example 159, (2S)-2-[(S)-(2-ethoxy-6-fluorophenoxy)(pyridin-2-yl)methyl]morpholine] | 7 nM | 7370 nM | –
24 | CCOc1ccccc1O[C@@H](CC(C)C)[C@@H]1CNCCO1 [Example 38, (S)-2-[(S)-1-(2-Ethoxy-phenoxy)-3-methyl-butyl]-morpholine] | 517 nM | 4100 nM | –
25 | FCCCc1ccccc1O[C@@H](c1ccccc1)[C@@H]1CNCCO1 [Example 145, (2S)-2-[(S)-[2-(3-fluoropropyl)phenoxy](phenyl)methyl]morpholine] | 45 nM | 4140 nM | –
26 | Cc1ncccc1O[C@@H](c1ccccc1)[C@@H]1CNCCO1 [Example 131, (2S)-2-[(S)-[(2-methylpyridin-3-yl)oxy](phenyl)methyl]morpholine] | 388 nM | 99 nM | –
27 | COc1cccc(F)c1O[C@@H](c1ccccn1)[C@@H]1CNCCO1 [Example 158, (2S)-2-[(S)-(2-fluoro-6-methoxyphenoxy)(pyridin-2-yl)methyl]morpholine] | 6 nM | ≥ 10000 nM | –
28 | Cc1ccccc1O[C@@H](c1ccccc1)[C@@H]1CNCCO1 [Example 49, (S)-2-((S)-Phenyl-o-tolyloxy-methyl)-morpholine] | 8.9 nM | 729 nM | –
29 | CC(C)c1ccccc1O[C@@H](c1ccccn1)[C@@H]1CNCCO1 [Example 103, (2S)-2-[(S)-(2-isopropylphenoxy)(pyridin-2-yl)methyl]morpholine] | 13 nM | 6070 nM | –
30 | Brc1ccccc1O[C@@H](c1ccccc1)[C@@H]1CNCCO1 [Example 4, (S)-2-[(S)-(2-Bromo-phenoxy)-phenyl-methyl]-morpholine] | 1.6 nM | 708 nM | –
31 | CC(C)Cc1cc(F)ccc1O[C@@H](c1ccccc1)[C@@H]1CNCCO1 [Example 59, (S)-2-[(S)-(4-Fluoro-2-isobutyl-phenoxy)-phenyl-methyl]-morpholine] | 61 nM | 206 nM | –
32 | Cc1coc(C(Oc2c(F)cccc2F)[C@@H]2CNCCO2)n1 (stereo partly drawn) [Example 173, (2S)-2-[(2,6-difluorophenoxy)(4-methyl-1,3-oxazol-2-yl)methyl]morpholine] | 12 nM | ≥ 10000 nM | –
33 | c1ccc([C@H](Oc2ccccc2N2CCNCC2)[C@@H]2CNCCO2)cc1 [Example 52, (S)-2-[(S)-Phenyl-(2-piperazin-1-yl-phenoxy)-methyl]-morpholine] | – | 1350 nM | 1620 nM
34 | Fc1cccc(F)c1OC(C1=CCCC1)[C@@H]1CNCCO1 (mixture of isomers) [Example 146, (2S)-2-[(S)-cyclopent-1-en-1-yl(2,6-difluorophenoxy)methyl]morpholine] | 20 nM | 3700 nM | –
35 | FCc1ccccc1OC(c1ccccc1)[C@@H]1CNCCO1 (stereo partly drawn) [Example 156, (2S)-2-[[2-(fluoromethyl)phenoxy](phenyl)methyl]morpholine] | 14 nM | 801 nM | –
36 | Fc1cccc(F)c1OC(c1cccc2c1OCC2)[C@@H]1CNCCO1 (stereo partly drawn) [Example 163, (2S)-2-[(2,6-difluorophenoxy)(2,3-dihydro-1-benzofuran-7-yl)methyl]morpholine] | 13 nM | 446 nM | –
37 | Fc1ccccc1OC(c1cccnc1)[C@@H]1CNCCO1 (mixture of isomers) [Example 23, (S)-2-[(S)-(2-Fluorophenoxy)-pyridin-3-yl-methyl]-morpholine] | 51 nM | 2630 nM | –
38 | N#Cc1ccccc1O[C@@H](c1ccccn1)[C@@H]1CNCCO1 [Example 22 (2S, 3S), (2S,3S)-2-(Morpholin-2-yl-pyridin-2-yl-methoxy)-benzonitrile] | 12 nM | – | –

Reference: patent US7659394B2 (Pfizer Inc, priority 2004, dated 2010)
